Assay results taken from ChEMBL document CHEMBL1144912, “Anticancer activity of phenolic acids of natural or synthetic origin: a structure-activity study” (2003).

Experiments:
[1] = tested on: L132; experiment: Percent reduction in cell viability of L-132 cells 72 hr after incubation with 100 uM of compound; assay type: functional, Homo sapiens
[2] = tested on: MOLT-3; experiment: Percent reduction in cell viability of MOLT-3 cells 72 hr after incubation with 100 uM of compound; assay type: functional, Homo sapiens
[3] = tested on: MDA-MB-231; experiment: Percent reduction in cell viability of MDA-MB-231 cells 72 hr after incubation with compound; assay type: functional, Homo sapiens
[4] = tested on: HeLa; experiment: Percent reduction in cell viability of HeLa cells 72 hr after incubation with 100 uM of compound; assay type: functional, Homo sapiens
[5] = tested on: MOLT-3; experiment: Percent reduction in cell viability of MOLT-3 cells 72 hr after incubation with the compound; assay type: functional, Homo sapiens
[6] = tested on: HeLa; experiment: Percent reduction in cell viability of HeLa cells 72 hr after incubation with compound; assay type: functional, Homo sapiens
[7] = tested on: MDA-MB-231; experiment: Percent reduction in cell viability of MDA-MB-231 cells 48 hr after incubation with compound; assay type: functional, Homo sapiens
[8] = tested on: MOLT-3; experiment: Percent reduction in cell viability of MOLT-3 cells 48 hr after incubation with the compound; assay type: functional, Homo sapiens
[9] = tested on: HeLa; experiment: Concentration for low cytotoxic activity against HeLa cell line; Range is 50-100 uM; assay type: functional, cell-based; details: Homo sapiens
[10] = tested on: MDA-MB-231; experiment: Concentration for low cytotoxic activity against MDA-MB-231 cell line; Range is 50-100 uM; assay type: functional, cell-based; details: Homo sapiens
[11] = tested on: MOLT-3; experiment: Concentration for low cytotoxic activity against MOLT-3 cell line; Range is 50-100 uM; assay type: functional, cell-based; details: Homo sapiens
[12] = tested on: L132; experiment: Concentration for low cytotoxic activity against L-132 cell line; Range is 50-100 uM; assay type: functional, cell-based; details: Homo sapiens
[13] = tested on: HeLa; experiment: Cytotoxic effect of compound measured as cell density of HeLa cells 72 hrs after incubation with compound compared to a initial density of […] cells/mL; assay type: functional, Homo sapiens
[14] = tested on: MOLT-3; experiment: Percent reduction in cell viability of MOLT-3 cells 72 hr after incubation with 50 uM of compound; assay type: functional, Homo sapiens

Compound: O=C(O)Cc1cc(O)c(O)c(O)c1
- Reduction [1]: 50%
- Reduction [2]: 47%
- Reduction [3]: 60%
- Reduction [4]: 80%

Compound: O=C(O)c1cc(O)c(O)c(O)c1 [GALLIC ACID]
- Reduction [5]: 50%
- Reduction [6]: 74%
- Reduction [3]: 65%

Compound: O=C(O)CCc1cc(O)c(O)c(O)c1
- Reduction [7]: 55%
- Reduction [8]: 45%

Compound: O=C(O)/C=C/c1ccc(O)c(OO)c1
- Concentration [9]: 100 µM
- Concentration [10]: 100 µM
- Concentration [11]: 100 µM
- Concentration [12]: 100 µM

Compound: O=C(O)CCc1ccc(O)c(O)c1 [DIHYDROCAFFEIC ACID]
- Cell density [13]: 500000 cells ml-1

Compound: O=C(O)Cc1ccc(O)c(O)c1 [3,4-DIHYDROXYPHENYLACETIC ACID]
- Reduction [14]: 75%
